Results taken from article PMC11087509, “Multimodal binding and inhibition of bacterial ribosomes by the antimicrobial peptides Api137 and Api88” (Nature Communications, 2024).
Where a SMILES comes first, the peptide text is derived from it. The star is where a group is joined. Orn(α-tetramethylguanidino) = CN(C)C(=N[C@@H](CCCN)C(=O)*)N(C)C

Key:
[1] = system: ribosome (arrest at UAG stop codon of model yrbA ORF); assay: In vitro toeprinting analysis (yrbA-fs15 template, TAG stop codon); format: biochemical; details: 50 µmol/L; gel, one of two replicates
Protocol: Toeprinting experiments using the yrbA-fs15 DNA template with a TAG stop codon were performed in the NEB classic PURExpress system (New England Biolabs)[21] as described above. The template was prepared by PCR[21] by combining the overlapping primers T7, T7-IR-AUG, IR-yrbA-fs15-RF1 (for TAG), post-NV1, and NV1, rendering the sequence:
[…](TAG)[…] (ORF sequence is underlined). The peptides Api137 and Api88 were added from stock solutions in water to a final concentration of 50 µM.

recombinant TF = details: fluorescence polarization; cited from earlier work
Excerpt: Binding sites two and three are close to uL23 and uL29, which is also supported by Api88(Y7B) cross-links. These ribosomal proteins are located adjacent to the PET exit and are binding hubs for the molecular chaperone trigger factor (TF)[34] and the signal recognition particle (SRP), a universally conserved and essential cellular machinery that directs proteins destined for membrane integration to the plasma membrane[35],[36]. This co-translational targeting is initiated by a hydrophobic signal sequence in the nascent protein chain recognized by SRP as it exits the PET. It is appealing to hypo ...

murine infection models = details: various models, different routes of administration; cited from earlier work
Excerpt: Here we have focused on two structurally modified versions of apidaecin 1b ([…]), which was originally isolated from the western honeybee (Apis mellifera). […] Api137 and Api88 differ only in their C-termini, i.e., a free acid versus an amide, which are negatively charged or neutral, respectively, ...

50S subunit = target: T1, 50S subunit (Escherichia coli, UniProt P0A7M6+P0ADZ0+P60723+P61175); assay: Fluorescence polarization binding, 50S subunit; parameters: species or system E. coli
T1 construct: Ribosomes were isolated from the E. coli strain MRE600; made in house; native subunits isolated in house
Protocol: Several hundred grams of log-phase cells were commercially produced and purchased. Cells were washed in buffer A (20 mmol/L HEPES (pH 7.6), 6 mmol/L MgAc2, 30 mmol/L AcOK, 4 mmol/L ß-mercaptoethanol) and lysed in an M-110L microfluidizer (Microfluidics) at 17,000 psi and 4 °C. Cell debris was removed by low-speed centrifugation (15,000× g, 10 min, 4 °C) to obtain S30 lysate. Crude ribosomes, mostly containing 70S ribosomes, were pelleted by ultracentrifugation (40,000× g, 17 h, 4 °C) and resuspended in buffer A. The 70S ribosomes were separated from 30S and 50S subunits by zonal ultracentrifugation (Beckman Ti-15; 6–40% sucrose gradient in buffer A, 44,000× g, 16 h, 4 °C). The 70S-containing fractions were collected, and the ribosomes were sedimented by ultracentrifugation (40,000× g, 17 h, 4 °C). Since these 70S ribosomes still contained tRNAs and mRNA, they were resuspended in buffer B (20 mmol/L HEPES (pH 7.6), 1 mmol/L MgAc2, 0.2 mol/L NH4Ac, 4 mmol/L ß-mercaptoethanol), which allows for dissociation into 30S and 50S subunits, and subjected to a second zonal centrifugation (Beckman Ti-15, 44,000× g, 16 h, 4 °C), but this time in a 6–40% sucrose gradient prepared in buffer B. Fractions containing 30S and 50S subunits were collected, sedimented by ultracentrifugation (40,000× g, 17 h, 4 °C), resuspended in buffer A, aliquoted, shock-frozen in liquid nitrogen, and stored at −80 °C.
Dissociation constants (Kd) were determined using purified 70S ribosome, 50S or 30S subunit and cf-labeled peptides in ribosome preparation buffer. Briefly, black 384-well plates (flat bottom, 781209, Greiner Bio-One GmbH) were blocked with casein (0.5%, w/v) in PBS containing 0.05% (v/v) Tween 20 at 4 °C overnight and washed three times with phosphate buffer. A 2-fold dilution series (22 steps) of pure 70S ribosome, 50S or 30S subunit (10 μL per well) in ribosome preparation buffer was prepared in a black 384-well plate. The cf-labeled peptide was dissolved in ribosome preparation buffer (10 μL, 40 nmol/L), added to each well, centrifuged (500 x g, 2 min), and incubated at 28 ± 1 °C for 90 min. Fluorescence polarization was measured on a […]^TM microplate reader (Beckman Coulter, Krefeld, Germany) in the top reading position (λexc = 485 nm, λem = 535 nm). Data were fitted to a nonlinear dose-response logistic transition equation [y = y0 + a/(1 + (x/x0)b)] using the Levenberg-Marquardt algorithm, with Kd represented by the x0 coefficients (GraphPad Prism for Windows v. 10.1.2, San Diego, CA, USA).

Gram-negative bacteria = details: cited from earlier work
Excerpt: Here we have focused on two structurally modified versions of apidaecin 1b ([…]), which was originally isolated from the western honeybee (Apis mellifera).

purified 70S ribosomes = assay: In vitro transcription-translation (ITT) of sfGFP; format: biochemical, E. coli
Excerpt: sfGFP was expressed using the NEB PureExpress Delta RF123 Kit (New England Biolabs). The sfGFP DNA template encoding for an UAG stop codon was amplified from the pY71sfGFP plasmid by PCR using sfGFP primers (sfGFP fwd: […] and sfGFP rev: […]). The release factor RF1 included in the kit was 50-fold diluted (v/v) in freshly prepared 1x Pure System Buffer (PSB, 9 mmol/L magnesium acetate, 5 mmol/L K3PO4 (pH 7.3), 95 mmol/L potassium glutamate, 5 mmol/L NH4Cl, 0.5 mmol/L CaCl2, 1 mmol/L spermidine, 8 mmol/L putrescine, 1 mmol/L DTT). sfGFP was expressed in a freshly prepared mixture of kit solution A (2 µL), kit solution B (1.5 µL), 50-fold diluted RF1 (0.5 µL), sfGFP template (0.1325 pmol, 35 ng) or water as control (0.25 µL), PSB (0.25 µL), and a PrAMP (50, 5, 0.05 or 0 µmol/L) dissolved in water (0.5 µL). The reaction mixture was transferred to a black 384-well plate (Greiner Bio-One GmbH, Frickenhausen, Germany), covered with a lid, and incubated in a microplate reader (Gemini EM, Molecular Devices) at 37 °C for two hours. Fluorescence was recorded every 10 min (λexc = 485 nm, λem = 535 nm).

## CC[C@H](C)[C@H](NC(=O)[C@H](Cc1ccc(O)cc1)NC(=O)[C@@H](NC(=O)[C@@H]1CCCN1C(=O)[C@H](CCCNC(=N)N)NC(=O)[C@H](CC(N)=O)NC(=O)[C@H](CC(N)=O)NC(=O)[C@H](CCCN)N=C(N(C)C)N(C)C)C(C)C)C(=O)N1CCC[C@H]1C(=O)N[C@@H](CCCNC(=N)N)C(=O)N1CCC[C@H]1C(=O)N[C@@H](CCCNC(=N)N)C(=O)N1CCC[C@H]1C(=O)N1CCC[C@H]1C(=O)N[C@@H](Cc1c[nH]cn1)C(=O)N1CCC[C@H]1C(=O)N[C@@H](CCCNC(=N)N)C(=O)N[C@@H](CC(C)C)C(=O)O [Api137] ({Orn(α-tetramethylguanidino)}-NNRPVYIPRPRPPHPRL-OH)
[1]
  toeprinting band at the UAG stop codon: intense toeprinting band
Recombinant TF
  Kd: > 100000 nM
Murine infection models
  efficacy in murine infection models: demonstrated efficacy in various murine infection models
50S subunit; apparent Kd, cf-labeled PrAMP (10 μL, 40 nmol/L), ribosome preparation buffer pH 7.6, 28 °C, 90 min, mean of triplicates
  Kd: 2180 ± 110 nM
50S subunit; ratio 70S / 50S, cf-labeled
  Kd for 50S subunit lower than for 70S ribosome: two-
Gram-negative bacteria; Api137 and Api88
  antimicrobial activity (Api137 and Api88 compared): comparable level of antimicrobial activity
Gram-negative bacteria; against Gram-negative bacteria
  antibacterial activity: enhanced antibacterial activity
Purified 70S ribosomes; absence of RF1, 50 µmol/L
  production of sfGFP reduced down to: ~ 60%
Purified 70S ribosomes; in vitro protein translation, with vs without RF1
  share of inhibitory effect based on a RF1-independent mechanism: half of the inhibitory effect
